Data published in ChEMBL document CHEMBL3813655 (ACS Med Chem Lett, 2016).
Activity calls are given as the source filed them. The rule behind the calls is not given here.

Columns and labels:
[1] = Cell cycle arrest in […]-ITD mutant expressing mouse BA/F3 cells assessed accumulation at G1 phase up to 100 nM after 48 hrs by propidium iodide staining based FACS analysis; type: functional; conditions: BaF3
[2] = test system: Receptor-type tyrosine-protein kinase FLT3 (Homo sapiens), P36888 [R834Q]; conditions: 1 uM
Description: Inhibition of FLT3 R834Q double mutant (unknown origin) at 1 uM by kinomescan analysis

PF-382 = assay: Antiproliferative activity against human PF382 cells assessed as cell viability by cell titer glo assay; type: functional, cell-based
MOLM-14 = assay: Antiproliferative activity against human MOLM14 cells assessed as cell viability after 3 days by cell titer glo assay; type: functional, cell-based
[3] = target: Rho-associated protein kinase 2 (Homo sapiens, UniProt O75116); assay: Inhibition of ROCK2 (unknown origin) by kinomescan analysis
[4] = target: Receptor-type tyrosine-protein kinase FLT3 (Homo sapiens) (UniProt P36888); conditions: 1 uM
Description: Inhibition of wild type FLT3 (unknown origin) at 1 uM by kinomescan analysis

U-937 = assay: Antiproliferative activity against human U937 cells assessed as cell viability by cell titer glo assay; type: functional, cell-based
K562 = assay: Antiproliferative activity against human K562 cells assessed as cell viability by cell titer glo assay; type: functional, cell-based
[5] = target: Receptor-type tyrosine-protein kinase FLT3 (Homo sapiens, UniProt P36888, D835Y)
[6] = test system: Receptor-type tyrosine-protein kinase FLT3 (Homo sapiens), P36888 [N841I]; conditions: 1 uM
Description: Inhibition of FLT3 N841I mutant (unknown origin) at 1 uM by kinomescan analysis

NB-4 = assay: Antiproliferative activity against pMMP-LucNeo fused human NB4 cells assessed as cell viability by cell titer glo assay; type: functional, cell-based
[7] = Half life in mouse microsomes; type: ADME, Microsome
[8] = Cell cycle arrest in […]-D835Y mutant expressing mouse BA/F3 cells assessed accumulation at G1 phase up to 100 nM after 48 hrs by propidium iodide staining based FACS analysis; type: functional; conditions: BaF3
HEL = assay: Antiproliferative activity against human HEL cells assessed as cell viability by cell titer glo assay; type: functional, cell-based
[9] = Antiproliferative activity against human patient-derived FLT3 ITD mutant expressing AML cells primagrafted in mouse spleen after 3 days; type: functional, cell-based; conditions: 72 h
[10] = Antiproliferative activity against human patient-derived FLT3 D835Y mutant expressing AML cells primagrafted in mouse spleen after 3 days; type: functional, cell-based; conditions: 72 h
Homo sapiens = species on record: Homo sapiens; assay: Antiproliferative activity against human P31 cells assessed as cell viability by cell titer glo assay; type: functional, cell-based
[11] = target: Dual specificity protein kinase CLK4 (Homo sapiens, UniProt Q9HAZ1); assay: Inhibition of CLK4 (unknown origin) by kinomescan analysis
[12] = test system: Receptor-type tyrosine-protein kinase FLT3 (Homo sapiens), P36888 [UNDEFINED MUTATION]; conditions: 1 uM
K052 = assay: Antiproliferative activity against human K052 cells assessed as cell viability by cell titer glo assay; type: functional, cell-based
[13] = target: Receptor-type tyrosine-protein kinase FLT3 (Homo sapiens, UniProt P36888, ITD)
[14] = target: Phosphorylase b kinase gamma catalytic chain, skeletal muscle/heart isoform (Homo sapiens, UniProt Q16816); assay: Inhibition of PHKGI (unknown origin) by kinomescan analysis
Serum = assay: Protein binding in 10% human serum at 100 uM after 3 days; type: ADME; conditions: 72 h
BaF3 [15] = assay: Induction of apoptosis in […]-D835Y mutant expressing mouse BA/F3 cells up to 1000 nM after 48 hrs by Annexin V-fluos assay; type: functional, cell-based
NOMO-1 = assay: Antiproliferative activity against human NOMO1 cells assessed as cell viability by cell titer glo assay; type: functional, cell-based
THP-1 = assay: Antiproliferative activity against human THP1 cells assessed as cell viability by cell titer glo assay; type: functional, cell-based
NALM-6 = assay: Antiproliferative activity against human NALM6 cells assessed as cell viability by cell titer glo assay; type: functional, cell-based
[16] = test system: Receptor-type tyrosine-protein kinase FLT3 (Homo sapiens), P36888 [UNDEFINED MUTATION]; conditions: 1 uM; remark: listed apart in the source
BaF3 [17] = assay: Induction of apoptosis in […]-ITD mutant expressing mouse BA/F3 cells up to 1000 nM after 48 hrs by Annexin V-fluos assay; type: functional, cell-based
Plasma = assay: Stability in mouse plasma after 6 hrs; type: ADME, cell-free
[18] = test system: Receptor-type tyrosine-protein kinase FLT3 (Homo sapiens), P36888 [D835V]; conditions: 1 uM
Description: Inhibition of FLT3 D835V mutant (unknown origin) at 1 uM by kinomescan analysis

[19] = target: Dual specificity protein kinase CLK1 (Homo sapiens) (UniProt P49759); assay: Inhibition of CLK1 (unknown origin) at 1 uM by kinomescan analysis
MOLM-13 = assay: Antiproliferative activity against pMMP-LucNeo fused human MOLM13 cells assessed as cell viability after 3 days by cell titer glo assay; type: functional, cell-based
[20] = test system: Receptor-type tyrosine-protein kinase FLT3 (Homo sapiens), P36888 [UNDEFINED MUTATION]; conditions: 1 uM; remark: listed apart in the source

Chain of Phosphorylase b kinase gamma catalytic chain, skeletal muscle/heart isoform (Q16816 whole entry, canonical isoform): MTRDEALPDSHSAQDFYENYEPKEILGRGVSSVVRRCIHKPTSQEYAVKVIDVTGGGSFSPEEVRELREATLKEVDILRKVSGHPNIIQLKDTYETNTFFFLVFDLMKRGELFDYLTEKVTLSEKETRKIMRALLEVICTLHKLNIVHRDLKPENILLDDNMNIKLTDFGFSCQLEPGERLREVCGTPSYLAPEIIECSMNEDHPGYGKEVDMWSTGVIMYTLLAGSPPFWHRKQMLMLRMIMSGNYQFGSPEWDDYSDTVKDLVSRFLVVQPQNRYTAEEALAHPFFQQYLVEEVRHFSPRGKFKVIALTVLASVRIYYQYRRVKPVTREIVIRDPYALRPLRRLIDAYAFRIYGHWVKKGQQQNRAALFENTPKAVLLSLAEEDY
Chain of Dual specificity protein kinase CLK4 (Q9HAZ1 whole entry): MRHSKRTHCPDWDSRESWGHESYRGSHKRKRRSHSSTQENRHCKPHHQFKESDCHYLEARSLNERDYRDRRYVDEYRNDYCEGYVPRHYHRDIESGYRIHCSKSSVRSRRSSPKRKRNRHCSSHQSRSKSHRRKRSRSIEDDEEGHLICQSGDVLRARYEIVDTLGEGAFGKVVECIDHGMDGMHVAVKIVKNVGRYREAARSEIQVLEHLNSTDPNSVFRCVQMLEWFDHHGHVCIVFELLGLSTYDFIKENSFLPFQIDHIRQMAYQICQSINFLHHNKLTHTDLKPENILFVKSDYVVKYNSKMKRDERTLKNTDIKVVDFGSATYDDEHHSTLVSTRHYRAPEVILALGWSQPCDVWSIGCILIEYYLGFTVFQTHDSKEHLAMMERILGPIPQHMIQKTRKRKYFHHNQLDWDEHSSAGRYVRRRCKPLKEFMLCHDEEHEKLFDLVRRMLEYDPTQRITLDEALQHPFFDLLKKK
Chain of Rho-associated protein kinase 2 (O75116 whole entry): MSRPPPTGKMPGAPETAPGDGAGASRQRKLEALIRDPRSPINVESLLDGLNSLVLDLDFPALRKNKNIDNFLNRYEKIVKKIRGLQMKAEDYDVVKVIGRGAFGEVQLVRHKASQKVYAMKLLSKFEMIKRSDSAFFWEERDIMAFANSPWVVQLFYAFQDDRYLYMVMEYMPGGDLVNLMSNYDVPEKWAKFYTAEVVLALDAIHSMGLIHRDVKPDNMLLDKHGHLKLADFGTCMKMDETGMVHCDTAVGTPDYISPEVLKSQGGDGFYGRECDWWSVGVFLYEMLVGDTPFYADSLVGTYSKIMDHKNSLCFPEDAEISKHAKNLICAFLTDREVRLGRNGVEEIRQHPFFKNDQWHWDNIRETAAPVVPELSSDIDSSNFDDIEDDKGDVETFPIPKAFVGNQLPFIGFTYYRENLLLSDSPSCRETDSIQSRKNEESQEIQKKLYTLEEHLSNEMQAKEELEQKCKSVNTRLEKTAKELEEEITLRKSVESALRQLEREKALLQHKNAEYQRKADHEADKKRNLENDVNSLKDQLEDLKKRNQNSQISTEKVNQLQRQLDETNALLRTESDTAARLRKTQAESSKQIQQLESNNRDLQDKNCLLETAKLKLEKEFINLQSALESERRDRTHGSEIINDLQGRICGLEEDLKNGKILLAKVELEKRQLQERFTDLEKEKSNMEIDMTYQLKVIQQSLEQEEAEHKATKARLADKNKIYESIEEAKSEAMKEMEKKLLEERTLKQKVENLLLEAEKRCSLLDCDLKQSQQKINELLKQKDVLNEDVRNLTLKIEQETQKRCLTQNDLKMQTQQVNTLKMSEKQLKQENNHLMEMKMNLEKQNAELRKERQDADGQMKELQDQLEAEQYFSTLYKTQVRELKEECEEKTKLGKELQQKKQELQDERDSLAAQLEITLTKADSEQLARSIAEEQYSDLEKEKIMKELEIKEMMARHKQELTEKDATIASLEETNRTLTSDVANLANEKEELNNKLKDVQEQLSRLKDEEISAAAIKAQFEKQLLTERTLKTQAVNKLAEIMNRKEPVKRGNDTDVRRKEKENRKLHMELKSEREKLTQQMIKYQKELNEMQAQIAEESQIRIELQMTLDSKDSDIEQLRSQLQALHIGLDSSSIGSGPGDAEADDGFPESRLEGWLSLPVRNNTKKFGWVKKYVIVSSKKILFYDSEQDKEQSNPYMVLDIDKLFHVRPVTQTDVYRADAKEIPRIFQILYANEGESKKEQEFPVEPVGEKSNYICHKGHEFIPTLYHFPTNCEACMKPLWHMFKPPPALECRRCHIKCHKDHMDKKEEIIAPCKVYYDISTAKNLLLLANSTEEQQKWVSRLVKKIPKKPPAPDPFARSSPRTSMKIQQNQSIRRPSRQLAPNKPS
Chain of Dual specificity protein kinase CLK1 (Homo sapiens) (P49759 whole entry, looked up, the tested form may be a part): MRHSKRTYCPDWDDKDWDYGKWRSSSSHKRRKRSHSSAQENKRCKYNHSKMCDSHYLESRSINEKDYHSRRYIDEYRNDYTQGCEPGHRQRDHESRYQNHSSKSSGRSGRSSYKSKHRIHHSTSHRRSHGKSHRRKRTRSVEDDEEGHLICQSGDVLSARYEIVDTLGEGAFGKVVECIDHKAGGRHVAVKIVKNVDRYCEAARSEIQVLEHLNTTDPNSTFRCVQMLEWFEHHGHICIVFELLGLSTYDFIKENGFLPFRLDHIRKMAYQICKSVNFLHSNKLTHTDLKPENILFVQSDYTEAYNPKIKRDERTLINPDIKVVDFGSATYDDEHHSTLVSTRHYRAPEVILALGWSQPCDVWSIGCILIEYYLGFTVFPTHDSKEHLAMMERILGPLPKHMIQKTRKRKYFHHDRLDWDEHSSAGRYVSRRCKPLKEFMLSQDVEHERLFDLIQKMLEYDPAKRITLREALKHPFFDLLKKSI

SMILES: CN(C)CCCn1cc(-c2ccc3c(c2)-c2[nH]c4cc(-c5cn[nH]c5)ccc4c2C3=O)cn1
- Activity [1]: Active
- inhibition [2]: > 95%
- Activity (PF-382): inactive
- Activity (MOLM-14): Active
- IC50 [3]: 936 nM
- inhibition [4]: > 95%
- Activity (U-937): inactive
- Activity (K562): inactive
- IC50 [5]: 4 nM
- inhibition [6]: > 95%
- Activity (NB-4): inactive
- half-life [7]: 15 min
- Activity [8]: inactive
- Activity (HEL): inactive
- IC50 [9]: 70 nM
- IC50 [10]: 70 nM
- Activity (Homo sapiens): inactive
- IC50 [11]: 142 nM
- inhibition [12]: > 95%
- Activity (K052): inactive
- IC50 [13]: 10 nM
- IC50 [14]: 78 nM
- PB (Serum): Active
- Activity (BaF3 [15]): Active
- Activity (NOMO-1): inactive
- Activity (THP-1): inactive
- Activity (NALM-6): inactive
- inhibition [16]: > 95%
- Activity (BaF3 [17]): Active
- Stability (Plasma): Stable
- inhibition [18]: > 95%
- inhibition [19]: Active
- Activity (MOLM-13): Active
- inhibition [20]: > 95%
